Test systems include COLO 205 colon; MDA-N; MOLT-4 leukemia; NCI-H460 lung; DLD-1 colon; DMS 114 small cell lung; HCC-2998 colon; HOP-18 NSCLC; KM20L2 colon; LXFL 529 NSCLC; M19-MEL melanoma; CCRF-CEM leukemia; DMS 273 small cell lung; SNB-78 CNS; XF 498 CNS.
Test in all cases: growth of human tumour cells (NCI), 48 h

Each structure is given as a SMILES string.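 Each compound was tested at five concentrations against cells in 96-well plates for 48 hours. The concentration for 50% growth inhibition is given as GI50. Definition used: TGI = concentration required for complete inhibition of growth.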 A value given as a limit tells only on which side of the number the result lay.

As for `N=C(N)SCCN1CCCCC1`, the TGI is over 100 µM with COLO 205 colon, over 100 µM in the assay on MDA-N, 58 µM in the assay with MOLT-4 leukemia and over 100 µM in the assay with NCI-H460 lung.

For `O=S(=O)([O-])[O-].[Fe+2].[OH2+]c1c(Cl)cc(Cl)cc1/C=N/Nc1ccccn1`, the TGI in the assay with COLO 205 colon was 3.47 µM; in the assay on DLD-1 colon it was 1.8 µM; with DMS 114 small cell lung, 0.595 µM; in the assay with HCC-2998 colon, 5.13 µM; with HOP-18 NSCLC it was 1.93 µM; in the assay on KM20L2 colon, 3.66 µM. The TGI worked out at 1.39 µM in the assay on LXFL 529 NSCLC, 4.86 µM with M19-MEL melanoma, 2.94 µM in the assay on MOLT-4 leukemia and 4.42 µM with NCI-H460 lung. Besides, the GI50 in the assay on HOP-18 NSCLC was 0.55 µM.

Consider `C[N+]1(c2ccccc2)C=C(c2ccccc2)SC1=S` (stereo unspecified), for which the TGI with COLO 205 colon, in the assay on HCC-2998 colon and in the assay with NCI-H460 lung was over 100 µM throughout.

In the case of `Nc1ccc(S(=O)(=O)NCCS(=O)(=O)O)cc1`, the TGI in the assay on CCRF-CEM leukemia, with MDA-N, in the assay with MOLT-4 leukemia and in the assay with NCI-H460 lung was over 100 µM in each case.

For the compound `O=C(/C=C/c1ccc(O)cc1)c1cc(-c2cc(CCC(=O)c3ccc(O)cc3O)ccc2O)c(O)cc1O`, the TGI was 43.6 µM in the assay with CCRF-CEM leukemia; 22.6 µM in the assay on COLO 205 colon; over 50 µM in the assay with MDA-N; over 50 µM in the assay with MOLT-4 leukemia; over 50 µM in the assay on NCI-H460 lung.

Consider `Cc1ncc(COP(=O)(O)O)c(C)c1O`, for which the TGI with MDA-N, in the assay with MOLT-4 leukemia and with NCI-H460 lung was over 100 µM throughout.

Turning to `COc1ccc(OC)c([N+](=O)[O-])c1-c1nc2sc(C)c(C)n2c1/C=N/N=C(N)N`, the TGI with CCRF-CEM leukemia is over 100 µM; with COLO 205 colon it was over 100 µM; with HCC-2998 colon it was over 100 µM; with MOLT-4 leukemia it was 40.4 µM; with NCI-H460 lung it was over 100 µM.

For the compound `COc1cc(O)c2c(=O)c(OC)c(-c3ccc(OC)c(OC)c3)oc2c1.[Zn+2]`, the TGI in the assay with COLO 205 colon, with HCC-2998 colon, in the assay with MDA-N, in the assay with MOLT-4 leukemia and in the assay with NCI-H460 lung was over 100 µM each time. Further, the GI50 in the assay with HCC-2998 colon was 43.1 µM; with MOLT-4 leukemia, over 100 µM.

Consider `CCCCCCCCc1ccc(CCC(N)(CO)CO)cc1`, for which the GI50 was 1.58 µM in the assay on COLO 205 colon, 1.57 µM in the assay on HCC-2998 colon, 1.64 µM in the assay with MOLT-4 leukemia and 1.76 µM in the assay on NCI-H460 lung. Besides, the TGI in the assay with COLO 205 colon came out at 2.92 µM; in the assay on HCC-2998 colon, 2.96 µM; with MOLT-4 leukemia it was 3.44 µM; in the assay on NCI-H460 lung, 3.53 µM.

As for `C=C(C[C@@H](O)[C@H](C)NC(=O)OCc1ccccc1)C(=O)OC(C)(C)C`, the TGI is 61.7 µM in the assay with CCRF-CEM leukemia; over 100 µM in the assay with COLO 205 colon; over 100 µM in the assay with HCC-2998 colon; over 100 µM with MDA-N; over 100 µM in the assay with MOLT-4 leukemia; over 100 µM with NCI-H460 lung.

Regarding `CCOc1ccc(N=Nc2ccc(-c3ccc(N=Nc4c(O)ccc5cc(S(=O)(=O)O)cc(S(=O)(=O)O)c45)cc3)cc2)cc1`, the TGI with CCRF-CEM leukemia, with COLO 205 colon, in the assay on HCC-2998 colon, in the assay with MOLT-4 leukemia and with NCI-H460 lung was over 100 µM in each case.

For `O=C1O/C(=C\C=C\CO)C=C1/C=C/CO`, the TGI in the assay on CCRF-CEM leukemia is 60.3 µM; in the assay with COLO 205 colon it was 5.16 µM; in the assay with MDA-N, 59.9 µM; in the assay on MOLT-4 leukemia it was over 100 µM; in the assay with NCI-H460 lung, over 100 µM.

For the compound `Cc1cccc(/C=C2/C(=O)Nc3ccccc32)n1`, the TGI with CCRF-CEM leukemia is over 85.9 µM; with COLO 205 colon, over 57 µM; with HCC-2998 colon it was 22.4 µM; in the assay with MOLT-4 leukemia, 44.5 µM; in the assay on NCI-H460 lung, over 81.2 µM.

In the case of `CC(=O)Oc1cc(/C=C/c2ccc(O)cc2)cc(OC(C)=O)c1`, the TGI is over 100 µM in the assay on COLO 205 colon, 63.2 µM in the assay on MOLT-4 leukemia and over 100 µM with NCI-H460 lung.

As to `CC(=O)[C@]12OC(=O)C3=C1[C@H](CC[C@@H]3C)[C@@H](C)C[C@H]2C=C(C)C`, the TGI in the assay with CCRF-CEM leukemia came to 22.6 µM; in the assay on COLO 205 colon it was 16.1 µM; in the assay with MDA-N, 16.9 µM; in the assay with MOLT-4 leukemia, 18.6 µM; with NCI-H460 lung, 17.3 µM.

As to `NC(=S)N/N=C1\CC(c2ccccc2)Nc2ccccc21` (stereo unspecified), the TGI was over 100 µM in the assay with CCRF-CEM leukemia; 73.3 µM in the assay with COLO 205 colon; over 100 µM with DLD-1 colon; 63.4 µM in the assay with DMS 114 small cell lung; over 100 µM with DMS 273 small cell lung; over 100 µM in the assay with HOP-18 NSCLC. Besides, the TGI in the assay on KM20L2 colon is 47.2 µM; in the assay on LXFL 529 NSCLC, over 100 µM; in the assay with M19-MEL melanoma, over 100 µM; with MOLT-4 leukemia, 73.2 µM; in the assay on NCI-H460 lung, over 100 µM; with SNB-78 CNS, over 100 µM. The same compound gave a TGI with XF 498 CNS of 35.2 µM.

Turning to `CC(=O)c1c(C)cc2cccc(OC3OC(CO)C(O)C(O)C3O)c2c1O` (stereo unspecified) (tested in a mixture with another compound), the TGI with CCRF-CEM leukemia, in the assay on COLO 205 colon, in the assay on HCC-2998 colon, with MDA-N, in the assay with MOLT-4 leukemia and with NCI-H460 lung was over 100 µM each time.

With `C[N+]1(C)C/C(=C\c2ccc(O)cc2)C(=O)/C(=C/c2ccc(O)cc2)C1`, the TGI in the assay with CCRF-CEM leukemia, in the assay on COLO 205 colon, in the assay with DLD-1 colon, in the assay on DMS 114 small cell lung, in the assay with DMS 273 small cell lung and with HCC-2998 colon was over 100 µM in each case. In addition, the TGI in the assay with HOP-18 NSCLC, in the assay on KM20L2 colon, in the assay with LXFL 529 NSCLC, in the assay on M19-MEL melanoma, with MOLT-4 leukemia and with NCI-H460 lung was over 100 µM throughout. This compound yielded a TGI with SNB-78 CNS of over 100 µM.

Values taken from PubChem BioAssay (NCI).
